Measurements reported in ChEMBL document CHEMBL3727357, “Compositions and methods for inhibiting g protein signaling” (2010).
The source made the active and inactive calls. No cut-off for these calls is given here.

What was measured:
[1] = biological target: T1, Guanine nucleotide-binding protein G(I)/G(S)/G(T) subunit beta-1/gamma-2 (Homo sapiens, UniProt P62873+P59768); assay: Inhibition of biotinylated Gbeta1gamma2 (unknown origin)-mediated PLCbeta3 activation incubated for 16 hrs; type: protein-complex assay
Target sequence in this assay (P59768 2-71 limits assumed): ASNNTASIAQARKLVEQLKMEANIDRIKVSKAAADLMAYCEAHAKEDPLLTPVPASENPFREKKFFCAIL
Target sequence in this assay (P62873 2-340 limits assumed): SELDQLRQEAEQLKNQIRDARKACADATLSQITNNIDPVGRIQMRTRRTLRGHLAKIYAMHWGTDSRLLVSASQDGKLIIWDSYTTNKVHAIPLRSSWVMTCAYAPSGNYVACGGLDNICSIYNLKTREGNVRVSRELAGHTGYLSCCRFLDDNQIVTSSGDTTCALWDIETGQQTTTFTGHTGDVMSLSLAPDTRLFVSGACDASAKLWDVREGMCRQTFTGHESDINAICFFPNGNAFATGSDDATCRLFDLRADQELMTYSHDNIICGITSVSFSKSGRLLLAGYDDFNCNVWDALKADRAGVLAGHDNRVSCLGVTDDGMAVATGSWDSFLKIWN

[2] = biological target: T1, Guanine nucleotide-binding protein G(I)/G(S)/G(T) subunit beta-1/gamma-2; assay: Inhibition of biotinylated Gbeta1gamma2 (unknown origin)-mediated PLCbeta2 activation incubated for 16 hrs; type: protein-complex assay
Target sequence in this assay (P59768 2-71 limits assumed): as the sequence (P59768 2-71 limits assumed) above
Target sequence in this assay (P62873 2-340 limits assumed): as the sequence (P62873 2-340 limits assumed) above

[3] = biological target: Delta-type opioid receptor (Homo sapiens) (UniProt P41143); conditions: CHO, 100 uM
Chain of Delta-type opioid receptor (Homo sapiens) (P41143 whole entry): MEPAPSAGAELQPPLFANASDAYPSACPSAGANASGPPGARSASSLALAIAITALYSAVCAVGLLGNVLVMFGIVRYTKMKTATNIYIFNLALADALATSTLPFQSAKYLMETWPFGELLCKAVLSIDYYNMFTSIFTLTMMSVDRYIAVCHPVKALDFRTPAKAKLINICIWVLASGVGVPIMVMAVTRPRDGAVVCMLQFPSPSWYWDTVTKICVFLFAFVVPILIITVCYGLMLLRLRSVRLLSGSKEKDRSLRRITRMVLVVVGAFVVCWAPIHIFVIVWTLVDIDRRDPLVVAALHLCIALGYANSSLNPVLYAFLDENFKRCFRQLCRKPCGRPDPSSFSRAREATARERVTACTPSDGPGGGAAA
Description: Inhibition of human Gbetagamma-dependent delta opioid receptor-mediated PLC activation expressed in CHO cells assessed as reduction of DPDPE-mediated total inositol phosphate production at 100 uM after 30 mins by scintillation counting analysis in presence of [3H]inositol

[4] = biological target: Delta-type opioid receptor (Homo sapiens) (UniProt P41143); conditions: CHO, 100 uM; remark: listed apart in the source
Description: Inhibition of human Gbetagamma-dependent delta opioid receptor-mediated PLC activation expressed in CHO cells assessed as reduction of Deltorphin 2-mediated total inositol phosphate production at 100 uM after 30 mins by scintillation counting analysis in presence of [3H]inositol

[5] = biological target: T1, Guanine nucleotide-binding protein G(I)/G(S)/G(T) subunit beta-1/gamma-2; assay: Inhibition of SIGKAFKILGYPDYD binding to biotinylated Gbeta1gamma2 (unknown origin) incubated for 1 hr by phage ELISA; type: protein-complex assay
Target sequence in this assay (P59768 2-71 partner limits assumed): as the sequence (P59768 2-71 limits assumed) above
Target sequence in this assay (P62873 2-340 limits assumed): as the sequence (P62873 2-340 limits assumed) above

[6] = biological target: T1, Guanine nucleotide-binding protein G(I)/G(S)/G(T) subunit beta-1/gamma-2; assay: Inhibition of SIGKAFKILGYPDYD binding to biotinylated Gbeta1gamma2 (unknown origin) at 300 uM incubated for 1 hr by phage ELISA; type: protein-complex assay
Target sequence in this assay (P59768 2-71 partner limits assumed): as the sequence (P59768 2-71 limits assumed) above
Target sequence in this assay (P62873 2-340 limits assumed): as the sequence (P62873 2-340 limits assumed) above

Structure (SMILES): Ic1ccc2c(c1)N(c1ccccc1)c1cc(Nc3ccc4nc5ccc(I)cc5[n+](-c5ccccc5)c4c3)ccc1N2
- IC50 [1]: Not Active
- IC50 [2]: Not Active

Structure (SMILES): Oc1ccc2c3c1O[C@H]1c4[nH]c5ccccc5c4C[C@@]4(O)[C@@H](C2)N(CC2CC2)CC[C@]314
- inhibition [3]: inactive
- inhibition [4]: inactive

Structure (SMILES): O=c1cc2oc3cc(O)c(O)cc3c(-c3ccccc3O)c-2cc1O
- inhibition [5]: inactive
- inhibition [6]: inactive

Structure (SMILES): O=C1c2ccccc2C(=O)c2c(Nc3cc4c5c(ccc6c7ccc8c9c(cc(Nc%10cccc%11c%10C(=O)c%10ccccc%10C%11=O)c(c3c56)c97)-c3ccccc3C8=O)C(=O)c3ccccc3-4)cccc21
- IC50 [1]: Not Active
